Test results: ChEMBL document CHEMBL4334438, “Discovery of novel glycogen synthase kinase-3α inhibitors: Structure-based virtual screening, preliminary SAR and biological evaluation for treatment of acute myeloid leukemia” (Eur J Med Chem, 2019)

Key:
[1] = tested on: Serine/threonine-protein kinase A-Raf (Homo sapiens), P10398 [Y301D,Y302D]; assay: Inhibition of recombinant human A-Raf Y301D/Y302D mutant (273 to end residues) assessed as residual activity at 1 uM using myelin basic protein as substrate incubated for 40 mins in presence of [gamma-33ATP] by scintillation counting based radiometry assay relative to control
[2] = biological target: MAP/microtubule affinity-regulating kinase 3 (Homo sapiens) (UniProt P27448); assay: Inhibition of recombinant full length human MARK3 assessed as residual activity at 1 uM using KKKVSRSGLYRSP as substrate incubated for 40 mins in presence of [gamma-33ATP by scintillation counting based radiometry assay relative to control
[3] = biological target: [Pyruvate dehydrogenase (acetyl-transferring)] kinase isozyme 2, mitochondrial (Homo sapiens) (UniProt Q15119); assay: Inhibition of human PDHK2 assessed as residual activity at 1 uM by radiometric method
[4] = biological target: Tyrosine-protein kinase SYK (Homo sapiens) (UniProt P43405); assay: Inhibition of recombinant full-length human Syk at 1 uM assessed as residual activity at 1 uM using poly(Glu, Tyr) 4:1 as substrate measured after 120 mins in presence of [gamma33P]ATP by scintillation counting method relative to control
[5] = biological target: Leukocyte tyrosine kinase receptor (Homo sapiens) (UniProt P29376); assay: Inhibition of recombinant human LTK (450 to end residues) assessed as residual activity at 1 uM using GEEPLYWSFPAKKK as substrate after 40 mins in presence of [gamma-33ATP] by scintillation counting based radiometry assay relative to control
[6] = biological target: Ribosomal protein S6 kinase alpha-6 (Homo sapiens) (UniProt Q9UK32); assay: Inhibition of recombinant full length human Rsk4 assessed as residual activity at 1 uM using LRRASLG as substrate measured after 40 mins in presence of [gamma33P]ATP by scintillation counting method relative to control
[7] = biological target: Cyclin-dependent kinase 5/CDK5 activator 1 (Homo sapiens) (UniProt Q00535+Q15078); assay: Inhibition of recombinant full length human CDK5/p35 assessed as residual activity at 1 uM using histone H1 as substrate incubated for 40 mins in presence of [gamma-33ATP] by scintillation counting based radiometry assay relative to control; format: protein-complex assay
[8] = biological target: Tyrosine-protein kinase Fyn (Homo sapiens) (UniProt P06241); assay: Inhibition of recombinant full length human Fyn assessed as residual activity at 1 uM using KVEKIGEGTYGVVYK as substrate at 40 mins in presence of [gamma-33ATP] by scintillation counting based radiometry assay relative to control
[9] = biological target: MAPK/MAK/MRK overlapping kinase (Homo sapiens) (UniProt Q9UQ07); assay: Inhibition of recombinant human MOK (1 to 343 residues) assessed as residual activity at 1 uM using RSRSRSRSRSRSRSR as substrate measured after 40 mins in presence of [gamma33P]ATP by scintillation counting method relative to control
[10] = biological target: Serine/threonine-protein kinase Nek7 (Homo sapiens) (UniProt Q8TDX7); assay: Inhibition of recombinant human NEK7 (2 to end residues) assessed as residual activity at 1 uM using FLAKSFGSPNRAYKK as substrate measured after 40 mins in presence of [gamma33P]ATP by scintillation counting method relative to control
[11] = biological target: Protein kinase C beta type (Homo sapiens) (UniProt P05771); assay: Inhibition of recombinant human PKCbeta2 (2 to end residues) assessed as residual activity at 1 uM using histone H1 as substrate measured after 40 mins in presence of [gamma33P]ATP by scintillation counting method relative to control
[12] = biological target: Serine/threonine-protein kinase TBK1 (Homo sapiens) (UniProt Q9UHD2); assay: Inhibition of recombinant full-length human TBK1 at 1 uM assessed as residual activity at 1 uM using KRRRALS(p)VASLPGL as substrate measured after 40 mins in presence of [gamma33P]ATP by scintillation counting method relative to control
[13] = tested on: Mitogen-activated protein kinase 14 (Homo sapiens), Q16539 [T106M]; assay: Inhibition of recombinant human full length SAPK2a T106M mutant assessed as residual activity at 1 uM using myelin basic protein as substrate measured after 40 mins in presence of [gamma33P]ATP by scintillation counting method relative to control
[14] = biological target: Mitogen-activated protein kinase kinase kinase 7 (Homo sapiens) (UniProt O43318); assay: Inhibition of human TAK1 (1 to 303 residues) assessed as residual activity at 1 uM using casein as substrate measured after 40 mins in presence of [gamma33P]ATP by scintillation counting method relative to control
[15] = biological target: Phosphorylase b kinase gamma catalytic chain, skeletal muscle/heart isoform (Homo sapiens) (UniProt Q16816); assay: Inhibition of recombinant full-length human PhKgamma1 assessed as residual activity at 1 uM using KKLNRTLSFAEPG as substrate measured after 120 mins in presence of [gamma33P]ATP by scintillation counting method relative to control
[16] = tested on: RAF proto-oncogene serine/threonine-protein kinase (Homo sapiens), P04049 [Y340D,Y341D]; assay: Inhibition of recombinant human C-Raf Y340D/Y341D double mutant (306 to end residues) assessed as residual activity at 1 uM poly(Glu, Tyr) 4:1 as substrate incubated 40 mins in presence of [gamma-33ATP] by scintillation counting based radiometry assay relative to control
[17] = biological target: Cyclin-dependent kinase 1/cyclin B1 (Homo sapiens) (UniProt P06493+P14635); assay: Inhibition of recombinant full length human CDK1/CyclinB assessed as residual activity at 1 uM using Histone H1 as substrate incubated for 40 mins in presence of [gamma-33ATP] by scintillation counting based radiometry assay relative to control; format: protein-complex assay
[18] = biological target: Serine/threonine-protein kinase 17A (Homo sapiens) (UniProt Q9UEE5); assay: Inhibition of recombinant human DRAK1 assessed as residual activity at 1 uM using KKLNRTLSFAEPG as substrate at 40 mins in presence of [gamma-33ATP] by scintillation counting based radiometry assay relative to control
[19] = biological target: Activin receptor type-1 (Homo sapiens) (UniProt Q04771); assay: Inhibition of human ALK2 (147 to end residues) assessed as residual activity at 1 uM using casein as substrate incubated for 40 mins in presence of [gamma-33ATP] by scintillation counting based radiometry assay relative to control
[20] = biological target: Transient receptor potential cation channel subfamily M member 7 (Homo sapiens) (UniProt Q96QT4); assay: Inhibition of recombinant human CHAK1 (1180 to end residues) assessed as residual activity at 1 uM using myelin basic protein as substrate incubated for 40 mins in presence of [gamma-33ATP] by scintillation counting based radiometry assay relative to control
[21] = tested on: Proto-oncogene tyrosine-protein kinase receptor Ret (Homo sapiens), P07949 [V804M]; assay: Inhibition of recombinant human Ret V804M mutant (658 to end residues) assessed as residual activity at 1 uM using […] as substrate measured after 40 mins in presence of [gamma33P]ATP by scintillation counting method relative to control

Chain of Phosphorylase b kinase gamma catalytic chain, skeletal muscle/heart isoform (Homo sapiens) (Q16816 whole entry, looked up, canonical isoform): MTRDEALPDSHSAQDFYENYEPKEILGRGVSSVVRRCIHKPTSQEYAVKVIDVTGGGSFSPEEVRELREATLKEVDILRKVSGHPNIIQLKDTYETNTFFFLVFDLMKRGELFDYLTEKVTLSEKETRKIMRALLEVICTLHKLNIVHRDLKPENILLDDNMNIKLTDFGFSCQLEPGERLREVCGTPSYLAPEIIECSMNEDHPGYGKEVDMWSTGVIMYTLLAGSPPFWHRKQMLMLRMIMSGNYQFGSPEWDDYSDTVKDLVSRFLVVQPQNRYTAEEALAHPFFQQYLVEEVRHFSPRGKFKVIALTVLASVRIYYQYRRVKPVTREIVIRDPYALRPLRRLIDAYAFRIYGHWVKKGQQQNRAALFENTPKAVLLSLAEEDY
Chain of Serine/threonine-protein kinase Nek7 (Homo sapiens) (Q8TDX7 whole entry, looked up): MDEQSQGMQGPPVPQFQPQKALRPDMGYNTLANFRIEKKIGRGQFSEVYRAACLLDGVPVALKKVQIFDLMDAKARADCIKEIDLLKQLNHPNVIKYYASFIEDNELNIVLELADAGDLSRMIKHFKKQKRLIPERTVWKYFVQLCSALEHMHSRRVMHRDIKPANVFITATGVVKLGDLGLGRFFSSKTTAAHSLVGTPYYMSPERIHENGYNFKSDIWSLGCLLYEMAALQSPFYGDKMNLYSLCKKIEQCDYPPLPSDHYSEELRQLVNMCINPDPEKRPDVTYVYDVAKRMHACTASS
Chain of Protein kinase C beta type (Homo sapiens) (P05771 2-671 limits assumed): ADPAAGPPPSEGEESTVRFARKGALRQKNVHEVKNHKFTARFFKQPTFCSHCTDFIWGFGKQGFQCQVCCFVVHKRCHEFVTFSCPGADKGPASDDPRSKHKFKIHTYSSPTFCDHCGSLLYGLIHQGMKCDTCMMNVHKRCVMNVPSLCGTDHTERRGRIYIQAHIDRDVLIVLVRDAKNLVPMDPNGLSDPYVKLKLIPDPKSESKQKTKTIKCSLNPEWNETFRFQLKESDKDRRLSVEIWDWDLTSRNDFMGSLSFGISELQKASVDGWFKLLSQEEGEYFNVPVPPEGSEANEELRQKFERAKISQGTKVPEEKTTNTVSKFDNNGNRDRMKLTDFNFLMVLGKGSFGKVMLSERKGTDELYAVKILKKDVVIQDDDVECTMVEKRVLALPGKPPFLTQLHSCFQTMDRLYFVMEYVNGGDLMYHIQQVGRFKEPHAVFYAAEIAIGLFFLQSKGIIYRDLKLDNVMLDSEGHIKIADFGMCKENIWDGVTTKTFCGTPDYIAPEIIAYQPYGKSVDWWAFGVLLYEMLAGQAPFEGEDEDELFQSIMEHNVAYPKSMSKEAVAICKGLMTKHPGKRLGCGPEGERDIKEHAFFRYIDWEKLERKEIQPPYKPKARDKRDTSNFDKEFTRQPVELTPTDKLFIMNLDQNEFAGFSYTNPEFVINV
Chain of Cyclin-dependent kinase 5/CDK5 activator 1 (Homo sapiens) (Q00535 whole entry): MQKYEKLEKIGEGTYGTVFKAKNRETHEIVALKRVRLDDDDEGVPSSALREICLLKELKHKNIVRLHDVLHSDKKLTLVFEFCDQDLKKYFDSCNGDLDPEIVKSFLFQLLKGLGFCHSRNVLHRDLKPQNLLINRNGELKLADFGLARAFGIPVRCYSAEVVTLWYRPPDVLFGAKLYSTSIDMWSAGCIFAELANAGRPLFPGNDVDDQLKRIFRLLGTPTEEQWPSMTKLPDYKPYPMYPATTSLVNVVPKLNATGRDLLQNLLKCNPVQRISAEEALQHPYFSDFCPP
Chain of Cyclin-dependent kinase 5/CDK5 activator 1 (Homo sapiens) (Q15078 99-307 partner limits assumed): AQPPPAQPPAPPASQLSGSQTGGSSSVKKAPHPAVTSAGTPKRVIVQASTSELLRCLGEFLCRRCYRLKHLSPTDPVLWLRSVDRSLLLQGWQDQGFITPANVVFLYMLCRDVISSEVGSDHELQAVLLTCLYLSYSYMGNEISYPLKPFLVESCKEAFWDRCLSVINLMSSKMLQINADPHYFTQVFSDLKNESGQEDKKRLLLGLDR
Chain of Ribosomal protein S6 kinase alpha-6 (Homo sapiens) (Q9UK32 whole entry): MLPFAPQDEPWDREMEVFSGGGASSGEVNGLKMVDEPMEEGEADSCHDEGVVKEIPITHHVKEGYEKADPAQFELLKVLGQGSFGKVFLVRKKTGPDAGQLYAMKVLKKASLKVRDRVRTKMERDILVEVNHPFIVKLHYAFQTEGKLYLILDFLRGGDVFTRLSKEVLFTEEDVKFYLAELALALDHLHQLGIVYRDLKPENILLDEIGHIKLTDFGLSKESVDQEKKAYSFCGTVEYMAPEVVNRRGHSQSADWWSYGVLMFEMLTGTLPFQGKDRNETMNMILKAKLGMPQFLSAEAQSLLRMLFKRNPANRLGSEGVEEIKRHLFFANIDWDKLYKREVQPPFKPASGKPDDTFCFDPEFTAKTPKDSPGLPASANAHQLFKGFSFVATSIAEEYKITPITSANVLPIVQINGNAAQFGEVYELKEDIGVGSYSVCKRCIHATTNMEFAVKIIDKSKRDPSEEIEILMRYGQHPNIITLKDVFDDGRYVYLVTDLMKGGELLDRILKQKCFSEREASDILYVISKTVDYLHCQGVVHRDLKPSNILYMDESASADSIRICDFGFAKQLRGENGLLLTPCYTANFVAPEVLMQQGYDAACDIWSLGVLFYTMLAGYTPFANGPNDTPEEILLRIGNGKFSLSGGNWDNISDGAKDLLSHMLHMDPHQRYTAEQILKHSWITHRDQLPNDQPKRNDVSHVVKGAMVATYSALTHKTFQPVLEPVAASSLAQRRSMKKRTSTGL
Chain of Mitogen-activated protein kinase 14 (Homo sapiens), Q16539 [T106M] (Q16539 whole entry T106M, the tested form may be a part): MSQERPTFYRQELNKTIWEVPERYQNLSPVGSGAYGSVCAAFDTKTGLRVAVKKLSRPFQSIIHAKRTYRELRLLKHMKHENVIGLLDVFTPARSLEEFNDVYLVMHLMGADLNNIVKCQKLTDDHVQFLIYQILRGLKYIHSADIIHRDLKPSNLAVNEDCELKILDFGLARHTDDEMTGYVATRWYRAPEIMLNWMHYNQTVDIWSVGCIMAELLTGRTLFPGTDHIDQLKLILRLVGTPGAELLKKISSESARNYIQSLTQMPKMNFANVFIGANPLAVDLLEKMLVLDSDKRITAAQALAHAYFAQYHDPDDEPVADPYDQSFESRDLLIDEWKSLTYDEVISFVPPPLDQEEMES
Chain of Mitogen-activated protein kinase kinase kinase 7 (Homo sapiens) (O43318 whole entry, the tested form may be a part, canonical isoform): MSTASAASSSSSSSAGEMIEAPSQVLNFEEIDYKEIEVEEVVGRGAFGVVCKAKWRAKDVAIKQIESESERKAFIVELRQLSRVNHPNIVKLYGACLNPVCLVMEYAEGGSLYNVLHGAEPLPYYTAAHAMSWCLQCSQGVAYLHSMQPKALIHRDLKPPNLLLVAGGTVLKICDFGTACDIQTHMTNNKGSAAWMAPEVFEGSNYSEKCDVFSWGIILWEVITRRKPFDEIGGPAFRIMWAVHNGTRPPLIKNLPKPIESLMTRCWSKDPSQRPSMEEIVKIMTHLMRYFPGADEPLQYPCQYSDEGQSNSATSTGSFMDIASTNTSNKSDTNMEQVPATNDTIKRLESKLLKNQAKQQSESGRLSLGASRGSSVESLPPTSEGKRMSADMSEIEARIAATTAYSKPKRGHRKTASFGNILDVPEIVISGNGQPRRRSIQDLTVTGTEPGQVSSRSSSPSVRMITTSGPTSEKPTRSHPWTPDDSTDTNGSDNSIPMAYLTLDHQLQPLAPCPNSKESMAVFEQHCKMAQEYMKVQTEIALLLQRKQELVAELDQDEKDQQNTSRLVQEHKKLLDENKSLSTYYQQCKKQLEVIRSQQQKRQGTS
Chain of MAPK/MAK/MRK overlapping kinase (Homo sapiens) (Q9UQ07 whole entry, the tested form may be a part): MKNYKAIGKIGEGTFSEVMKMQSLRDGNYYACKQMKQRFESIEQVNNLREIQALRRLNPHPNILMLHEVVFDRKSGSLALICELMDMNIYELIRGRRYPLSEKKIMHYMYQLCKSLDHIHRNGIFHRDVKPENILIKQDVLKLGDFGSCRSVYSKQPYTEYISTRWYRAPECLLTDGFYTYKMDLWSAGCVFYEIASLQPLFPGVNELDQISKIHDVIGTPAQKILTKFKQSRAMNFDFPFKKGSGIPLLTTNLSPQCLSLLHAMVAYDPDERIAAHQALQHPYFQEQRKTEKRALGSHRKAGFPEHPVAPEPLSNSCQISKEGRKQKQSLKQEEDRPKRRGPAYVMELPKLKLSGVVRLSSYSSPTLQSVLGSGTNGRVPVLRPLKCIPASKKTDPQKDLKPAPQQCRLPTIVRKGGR
Chain of Serine/threonine-protein kinase 17A (Homo sapiens) (Q9UEE5 whole entry): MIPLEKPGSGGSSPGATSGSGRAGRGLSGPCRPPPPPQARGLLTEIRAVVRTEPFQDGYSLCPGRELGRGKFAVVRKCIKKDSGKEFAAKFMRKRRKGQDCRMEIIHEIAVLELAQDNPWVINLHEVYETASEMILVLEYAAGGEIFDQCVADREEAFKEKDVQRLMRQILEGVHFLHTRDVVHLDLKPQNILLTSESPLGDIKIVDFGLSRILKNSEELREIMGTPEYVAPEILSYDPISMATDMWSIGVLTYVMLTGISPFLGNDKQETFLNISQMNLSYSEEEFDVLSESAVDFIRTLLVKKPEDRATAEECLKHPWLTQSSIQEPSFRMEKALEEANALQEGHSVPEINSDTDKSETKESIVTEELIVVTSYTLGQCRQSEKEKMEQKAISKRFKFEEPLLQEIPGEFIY
Chain of Tyrosine-protein kinase Fyn (Homo sapiens) (P06241 2-537 limits assumed): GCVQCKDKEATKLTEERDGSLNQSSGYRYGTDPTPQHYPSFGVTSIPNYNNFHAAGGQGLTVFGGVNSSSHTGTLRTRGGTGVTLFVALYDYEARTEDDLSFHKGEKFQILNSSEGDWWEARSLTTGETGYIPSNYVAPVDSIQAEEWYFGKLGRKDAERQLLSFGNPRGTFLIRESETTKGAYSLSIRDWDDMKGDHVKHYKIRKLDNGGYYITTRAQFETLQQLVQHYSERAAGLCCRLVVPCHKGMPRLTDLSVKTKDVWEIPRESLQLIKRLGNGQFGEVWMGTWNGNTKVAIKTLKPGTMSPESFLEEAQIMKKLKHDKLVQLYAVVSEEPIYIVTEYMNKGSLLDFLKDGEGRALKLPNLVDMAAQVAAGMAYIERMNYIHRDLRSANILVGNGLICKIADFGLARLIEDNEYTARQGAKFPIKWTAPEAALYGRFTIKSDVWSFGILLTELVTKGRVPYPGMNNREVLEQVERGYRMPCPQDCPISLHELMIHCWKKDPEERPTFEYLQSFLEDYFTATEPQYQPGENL

Work on `C=CCOC(=O)c1cc(-c2ccc(/C=C3/NC(=S)NC3=O)o2)ccc1Cl` yielded an Activity [1] of 111%, an Activity [2] of 99% and an Activity [3] of 107%. It also gave an Activity [4] of 82%, an Activity [5] of 104% and an Activity [6] of 92%. For the same compound, the Activity [7] was 73%, the Activity [8] was 102% and the Activity [9] was 118%. For the same compound, the Activity [10] was 98%, the Activity [11] was 100% and the Activity [12] was 98%. For the same compound, the Activity [13] was 100%, the Activity [14] was 100% and the Activity [15] was 94%. For the same compound, the Activity [16] was 85%, the Activity [17] was 65% and the Activity [18] was 83%. It also gave an Activity [19] of 105%, an Activity [20] of 99% and an Activity [21] of 98%.

`N=C1NC(=O)/C(=C\c2ccc(-c3cccc([N+](=O)[O-])c3)o2)S1` gave an Activity [1] of 105%, an Activity [2] of 100% and an Activity [3] of 102%. The Activity [4] was 93%, the Activity [5] was 114% and the Activity [6] was 99%. It also gave an Activity [7] of 53%, an Activity [8] of 79% and an Activity [9] of 101%. For the same compound, the Activity [10] was 107%, the Activity [11] was 92% and the Activity [12] was 105%. For the same compound, the Activity [13] was 80%, the Activity [14] was 92% and the Activity [15] was 91%. It also gave an Activity [16] of 98%, an Activity [17] of 73% and an Activity [18] of 80%. The Activity [19] was 101%, the Activity [20] was 104% and the Activity [21] was 95%.
